Laboratory results from patent US7803757B2, “Peptides based on the sequence of human lactoferrin and their use” (PharmaSurgics in Sweden AB, priority 1998, dated 2010).
Square brackets hold non-standard residues; d marks the D form. Ends that are not written are not given here. Orn = NCCC[C@H](N)C(=O)O

What was measured:
Assay type in all cases: cell-based
S. aureus [1] = experiment: killing of bacteria at fixed peptide concentration, S. aureus (Example 12); details: peptide 25 μg/ml
Method: (§1) In this example, the peptides according to the invention were used to study the effect on the killing of different bacteria.
(§2) The peptides were used at a concentration of 25 μg/ml.

C. albicans [2] = experiment: fungicidal activity MMC99%, C. albicans (Example 27); details: BHI diluted 1/100 (Table 23)
Method: (§3) In the examples, the minimal microbicidal concentrations (MMC) and minimal inhibitory concentrations (MIC) were determined as follows, unless otherwise specified in the examples. Bacterial or fungal strains were cultured in BHI medium over night at 37° C. A volume of the culture was transferred to a new tube with BHI and incubated for two more hours. Thereafter the cells were spun down and the pellet was suspended in BHI medium diluted 1/100 (1% BHI). The concentration of bacterial or fungal cells was spectrophotometrically determined at 650 nm. The microbial concentrations were also determined by viable counts. Peptides serially diluted in 1% BHI by twofold or tenfold steps were added in triplicate to the wells of a microtiterplate (200 μl per well). The bacterial or fungal cell solutions were added in 10 μl volumes to give a final concentration of approximately 1-5×10^5 cells per ml in the well. The microplate was incubated at 37° C. in a humid chamber for two hours. Thereafter 5 μl was taken from each well and added as a drop onto a blood agar plate and incubated over night at 37° C. The microplate was incubated for another 20 hours at 37° C. and thereafter analysed spectrophotometrically at 650 nm in a microplate reader (Emax, Molecular Devices, USA). The concentration of peptide causing a 99% reduction of the inoculum after 2 hours of incubation was defined as the MMC99%. The MIC value was defined as the concentration giving no increase in the absorbance value above the background level after 20 hours of incubation.
(§4) In this example the fungicidal activity of three of the peptides according to the invention was studied, and tested against three different fungi. The fungi were incubated in BHI medium diluted 1/100. The concentration of each peptide needed to kill 99% of the fungi (MMC99%) was determined.

E. coli [3] = experiment: MMC99% of modified peptides, E. coli (Example 25); details: BHI diluted 1/100, pH approximately 6.7-6.9 (Table 21)
Method: as §3
(§5) In this example the fungicidal, and bactericidal effects of the different peptides obtained in examples 18-21 were studied. C. albicans, E. coli and S. aureus, respectively, were incubated in BHI medium diluted 1/100, with a pH of approximately 6.7-6.9. The concentration of each peptide needed to kill 99% of the microorganisms (MMC99%) was determined.

C. albicans [4] = experiment: MMC99% of modified peptides, C. albicans (Example 25); details: BHI diluted 1/100, pH approximately 6.7-6.9 (Table 21)
Method: as §3, §5

[5] = system: C. albicans yeast cells (ATCC64549); experiment: killing and growth inhibition of C. albicans at pH 4.5 (Example 11); design: key to C. albicans inhibition (OD650): + = no increase in OD650 is seen; − = OD650 continues to increase; details: pH 4.5, 1% BHI, 25 μg/ml of the peptide
Summary of the method: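 Yeast cells exposed 2 h at pH 4.5 to 25 µg/ml peptide in 1% BHI, then plated on blood agar. Killing scored as 100% and 99% fungicidal effect; growth inhibition read as no OD650 increase after a further 18 h.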

E. coli O6K5 = experiment: microbicidal activity MMC99%, E. coli O6K5 (Example 28); details: E. coli O6K5 (Table 24)
Method: as §3
(§6) In this example the microbicidal activity of eight of the peptides according to the invention was studied, and tested against E. coli O6K5 and C. albicans.
(§7) The concentration of each peptide needed to kill 99% of the microorganisms (MMC99%) was determined.

S. aureus [6] = experiment: MMC99% of modified peptides, S. aureus (Example 25); details: BHI diluted 1/100, pH approximately 6.7-6.9 (Table 21)
Method: as §3, §5

C. albicans [7] = experiment: microbicidal activity MMC99%, C. albicans (Example 28); details: C. albicans (Table 24)
Method: as §3, §6, §7

C. glabrata = experiment: fungicidal activity MMC99%, C. glabrata (Example 27); details: BHI diluted 1/100 (Table 23)
Method: as §3, §4

K. pneumoniae = experiment: killing of bacteria at fixed peptide concentration, K. pneumoniae (Example 12); details: peptide 25 μg/ml
Method: as §1, §2

E. faecalis = experiment: killing of bacteria at fixed peptide concentration, E. faecalis (Example 12); details: peptide 25 μg/ml
Method: as §1, §2

C. albicans [8] = experiment: MMC99% of modified peptides, C. albicans (Example 26); details: BHI diluted 1/100, pH approximately 6.7-6.9 (Table 22)
Method: as §3
as §5, with “example 22” for “examples 18-21”

E. coli [9] = experiment: MMC99% of modified peptides, E. coli (Example 26); details: BHI diluted 1/100, pH approximately 6.7-6.9 (Table 22)
Method: as §3
as §5, with “example 22” for “examples 18-21”

P. aeruginosa = experiment: killing of bacteria at fixed peptide concentration, P. aeruginosa (Example 12); details: peptide 25 μg/ml
Method: as §1, §2

S. epidermis = experiment: killing of bacteria at fixed peptide concentration, S. epidermis (Example 12); details: peptide 25 μg/ml
Method: as §1, §2

C. albicans (ATCC64549) = system: C. albicans (ATCC64549)
Summary of the method: (§8)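 Microbes at ~1–5×10^5 cells/mL in 1% BHI exposed to peptides (1, 10, 25, 100 µg/ml) at 37 °C. MMC99%: concentration killing 99% of inoculum after 2 h, by spotting onto blood agar. MIC: no absorbance rise at 650 nm above background after a further 20 h.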

E. coli O6 = system: E. coli O6
Summary of the method: as §8

S. aureus [10] = experiment: MMC99% of modified peptides, S. aureus (Example 26); details: BHI diluted 1/100, pH approximately 6.7-6.9 (Table 22)
Method: as §3
as §5, with “example 22” for “examples 18-21”

C. neoformans = experiment: fungicidal activity MMC99%, C. neoformans (Example 27); details: BHI diluted 1/100 (Table 23)
Method: as §3, with “The bacterial or fungal cell solutions were added in 10 μl volumes to give a final concentration of approximately 1-5×10^5 cells per ml in the well. The microplate was incubated at 37° C. in a humid chamber for two hours. Thereafter 5 μl was taken from each well and added as a drop onto a blood agar plate and incubated over night at 37° C.” left out, “The concentration of peptide causing a 99% reduction of the inoculum after 2 hours of incubation was defined as the MMC99%.” left out
In this example the fungicidal activity of three of the peptides according to the invention was studied, and tested against three different fungi. […] The concentration of each peptide needed to kill 99% of the fungi (MMC99%) was determined.

Substance: CFQWQRNMRKVR [Peptide 46, C-F-Q-W-Q-R-N-M-R-K-V-R]
- killing of bacteria: S. aureus (S. aureus [1]): + (+ = 99% of the bacteria are killed)
- MMC99% (C. albicans [2]): 12.5
- MMC99% (E. coli [3]): 12
- MMC99% (C. albicans [4]): 12
- C. albicans inhibition (OD650) ([5]; OD650 after an additional 18 hours): +
- C. albicans killing: 99% ([5]; 2 hours): + (+ = 100/99% of the bacteria are killed)
- C. albicans killing: 100% ([5]; 2 hours): + (+ = 100/99% of the bacteria are killed)
- MMC99% (E. coli O6K5): 10
- MMC99% (S. aureus [6]): 7
- MMC99% (C. albicans [7]): 10
- MMC99% (C. glabrata): 50
- killing of bacteria: K. pneumoniae (K. pneumoniae): + (+ = 99% of the bacteria are killed)
- killing of bacteria: E. faecalis (E. faecalis): + (+ = 99% of the bacteria are killed)
- MMC99% (C. albicans [8]): 12
- MMC99% (E. coli [9]): 6
- killing of bacteria: P. aeruginosa (P. aeruginosa): + (+ = 99% of the bacteria are killed)
- killing of bacteria: S. epidermis (S. epidermis): + (+ = 99% of the bacteria are killed)
- MIC (C. albicans (ATCC64549); ATCC64549): 10 µg/mL
- MMC99% (C. albicans (ATCC64549); C. albicans, tested at 1, 10, 25 and 100 μg/ml of peptide): 10 µg/mL
- MMC99% (E. coli O6; E. coli O6, tested at 1, 10, 25 and 100 μg/ml of peptide): 10 µg/mL
- MIC (E. coli O6; O6): 10 µg/mL
- MMC99% (S. aureus [10]): 12

Substance: C-F-Q-W-Orn-R-N-M-R-K-V-R (CFQW[Orn]RNMRKVR) [SEQ. ID. NO. 87]
- MMC99% (C. albicans [2]): 6.3
- MMC99% (E. coli [3]): 6
- MMC99% (C. albicans [4]): 3
- MMC99% (E. coli O6K5): 5
- MMC99% (S. aureus [6]): ≦3.5
- MMC99% (C. albicans [7]): 5
- MMC99% (C. glabrata): >50
- MMC99% (C. neoformans): 3.1
